Experiments:
P. hemolytica [1] = experiment: In vitro minimal inhibitory concentration against P. hemolytica isolates (Example 1); assay type: cell-based
Description: (§1) Minimal inhibitory concentrations (MIC) of eight Pasteurella isolates are also determined.

P. multocida [2] = experiment: In vitro minimal inhibitory concentration against P. multocida isolates (Example 1); assay type: cell-based
Description: as §1

P. multocida [3] = experiment: MIC by tube dilution method against P. multocida (Example 3); assay type: cell-based; settings: 24 hours, 37° C.
Description: (§2) In vitro determination of the potency of Isopropyl BM123γ compared with oxytetracycline and gentamicin in selected bacterial isolates by a tube dilution method.
(§3) Serial two-fold dilutions of antibacterial agent are prepared in trypticase soy broth. To each tube containing 5 ml of broth, is added 0.1 ml of 10^-3 dilution of bacterial inoculum, adjusted prior to dilution of 44 percent transmission at 645 m,u. An inoculated broth, containing no drug is included as growth for each strain tested.

P. hemolytica [4] = experiment: MIC by tube dilution method against P. hemolytica (Example 3); assay type: cell-based; settings: 24 hours, 37° C.
Description: as §2, §3

shipping fever [5] = experiment: Control of shipping fever in young cattle: mortality and days to return to normal temperature (Example 2); assay type: in vivo, calves; settings: 11.0 mg/kg i.m., 3 daily injections
From the text: In vivo activity of Isopropyl BM123γ for the control of shipping fever in young cattle as compared to oxytetracycline.
Calves weighing 90.6 to 181.2 Kg received at the feedlot are processed as is normally done, except no antibacterial treatment is given. Processing includes vaccination with Infectious Bovine Rhinotracheitis (Bovine virus Diarrhea) Leptospirosis vaccine, administration of a Clostridium novyi, septicum, sordelli, chauvei bacterin, levamisole (1/2 oblet), i.m. administration of 3 ml of a vitamin A, D and E formulation, a pour-on formulation of 0,0-dimethyl-0-(2,4,5-trichlorophenyl) ester of phosphorothioic acid for the control of grubs and lice, and one DES (diethylstilbestrol) implant in an ear. In addition--and at the same time--the calves are branded, ear tagged, dehorned and castrated where applicable.
One to two days after arrival and processing, sick calves are removed from the holding pens and those with temperatures of 40.0° C. or higher and showing symptoms of respiratory disease are selected for the study.
A total of 300 calves are randomly allotted to four groups of 75 calves each. One group serves as infected unmedicated controls receiving a "blank" solution, the others receive intramuscularly between hip and pin bones, for a total of 3 daily injections of:
a. 11 mg/kg body weight of oxytetracycline, the maximum recommended dose;
b. 0.5 mg/kg body weight of Isopropyl BM123γ; or
c. 1.0 mg/kg body weight of Isopropyl BM123γ.
The preparation and composition of injectables for "b" and "c" are described in Example 5 below.
Temperatures are recorded daily until two successive readings of 39.7° C. or lower are recorded, at which time calves are moved from the "sick" pen to the "recovered" pen. Although some of the "recovered" calves continue to show symptoms of disease, the criterion of body temperature is selected since it is completely objective.
One hundred fifty-four calves are treated the first day, fifty the second and 96 the third day. Following treatment, each animal is observed and its temperature recorded for a total of 14 consecutive days. Each animal which dies is necropsied and duplicate samples of lung and mediastinal lymph node are taken for microbiological examination. Necropsy examinations confirm the presence of severe pneumonia in most animals which died.
These calves died early in the study from conditions which the treatments should not have been expected to control.

Pasteurella = experiment: Bacterial isolation from tissues of sacrificed treated calves; assay type: in vivo; settings: Calf No. 4, 4 days administered
From the text: At the end of the experiment, six calves are sacrificed, and animal tissues examined for aerobic and anaerobic bacteria. Pasteurella are isolated and identified from three of the sacrificed calves. No anaerobes are recovered from any tissues.

shipping fever [6] = experiment: Gross necropsy findings of sacrificed treated calves; assay type: in vivo; settings: Calf No. 4 (d), 4 days administered
shipping fever [7] = experiment: Efficacy in depressing the body temperature of calves having shipping fever (Example 1); assay type: in vivo; settings: 13 mg/kg i.m., three or four consecutive days
From the text: In vivo activity of BM123γ-hydrochloride and of isopropyl BM123γ for the control of shipping fever in calves.
Two hundred sick calves, with elevated temperatures and clinical signs of shipping fever are chosen for the experiment. The animals are allotted to four groups of 50 calves each. One group serves as nonmedicated, infected controls receiving placebos, the other groups receive intramuscular injections of the respective drugs for three or four consecutive days at the levels indicated in Table 1. […]

Which results are given for Gentamicin?
MIC (P. hemolytica [1]; isolate No. 1): 4 µg/mL; MIC (P. hemolytica [1]; isolate No. 2): 8 µg/mL; MIC (P. hemolytica [1]; isolate No. 3): 2 µg/mL; MIC (P. hemolytica [1]; isolate No. 4): 4 µg/mL; MIC (P. hemolytica [1]; isolate No. 5): 4 µg/mL; MIC (P. multocida [2]; isolate No. 6): 2 µg/mL; MIC (P. multocida [2]; isolate No. 7): 2 µg/mL; MIC (P. multocida [2]; isolate No. 8): 2 µg/mL; MIC (P. multocida [3]; isolate No. 1): 4.0 µg/mL; MIC (P. multocida [3]; isolate No. 2): 4.0 µg/mL; MIC (P. multocida [3]; isolate No. 3): 8.0 µg/mL; MIC (P. multocida [3]; isolate No. 4): 4.0 µg/mL; MIC (P. multocida [3]; isolate No. 5): 4.0 µg/mL; MIC (P. multocida [3]; isolate No. 6): 4.0 µg/mL; MIC (P. multocida [3]; isolate No. 7): 4.0 µg/mL; MIC (P. hemolytica [4]; isolate No. 1): 8.0 µg/mL; MIC (P. hemolytica [4]; isolate No. 2): 8.0 µg/mL; MIC (P. hemolytica [4]; isolate No. 3): 4.0 µg/mL; MIC (P. hemolytica [4]; isolate No. 4): 8.0 µg/mL; MIC (P. hemolytica [4]; isolate No. 5): 4.0 µg/mL

With CN(C)C1C(=O)C(C(N)=O)=C(O)C2(O)C(=O)C3=C(O)c4c(O)cccc4C(C)(O)C3C(O)C12 (stereo not drawn) [Oxytetracycline] as the compound, how does the “Mortality, Percent” value (shipping fever [5]) read?
Its value is 5.6%.

What about the “average number of days to return to normal temperature” value (shipping fever [5]) of the same compound?
Its value is 5.33 days.

What about the “Mortality, No. of Animals” value (shipping fever [5]; group of 75) of the same compound?
The value was 4 No. of Animals.

And the “Days to Normal, No. of Animals” value (shipping fever [5]; normal = two successive readings of 39.7° C. or lower)?
The value was 72 No. of Animals.

What about the Bacteria isolated (Pasteurella) of the same compound?
Its Bacteria isolated is “P. Hemolytica + P. multocida”.

What about the Total cfu/g (Pasteurella; P. Hemolytica + P. multocida) of the same compound?
The Total cfu/g was 9.1 × 10^6 cfu/g.

And the “Lung findings at necropsy” value (shipping fever [6])?
The value was “The lungs were consolidated and had miliary abscesses in 60% of their volume”.

What about the “Calves below 39.4° C./total, 2 days after last Injection” value (shipping fever [7]) of the same compound?
Its value is 22/38.

And the “Percent of calves below 39.4° C., 2 days after last Injection” value (shipping fever [7])?
Its value is 58%.

What about the “Mean Temperature 2 days after last Injection” value (shipping fever [7]; mean initial 40.7) of the same compound?
The value was 39.4 °C.
